Source: patent publication US20220226283A1, “COMBINATION PRODUCT CONTAINING LIMONOID COMPOUND AND DPP-4 INHIBITOR” (ZHEJIANG YANGSHENGTANG INSTITUTE OF NATURAL MEDICATION CO., …, priority 2019, published 2022)

How the values were obtained:
Format in all cases: in vivo
[1] = test system: db/db mice; assay: Blood glucose in mouse type II diabetes model (limonoid compound, saxagliptin or combination); details: single administration 0.04 g/kg per day by gavage, two weeks, 1 h after the last administration, mean ± SD
Excerpt: (§1) In the present example, db/db mice (line name BKS.Cg-Dock7^m+/+Lepr^db/Nju) were used to perform hypoglycemic efficacy evaluation test of animals (blood glucose level and leptin). The limonoid compound was selected from obacunone, isoobacunoic acid and obacunone glycoside, and saxagliptin single administration group, obacunone single administration group, isoobacunoic acid single administration group, obacunone glycoside single administered group, and respective combination thereof with saxagliptin administration groups were set.
(§2) Conditions for experimental feeding: as type II diabetes model mice, 6-week-old SPF-grade db/db mice were purchased from the Nanjing Model Biology Institute, and subjected to experimental feeding after 7 days of preliminary feeding. It should be noted that the conditions for raising the mice were as follows: the temperature was 23±1° C., the humidity was 55±10%, the lights were turned on between 7 am and 7 pm (the lights were turned off at other time), and the mice were allowed to freely take in water and feed. The experimental feed was mouse growth-stable feed (GB M2118), and the daily feeding and management of the animals were under the responsibility of the animal security department, which provided the animals with sufficient diet and fresh drinking water daily.
Experimental grouping: male db/db mice (20±2 g) were selected, and 18 male mice in each group were tested. The experimental groups included normal control group (db/m, n=18), model group (db/db, n=18), obacunone group (db/db, n=18), isoobacunoic acid group (db/db, n=18), obacunone glycoside group (db/db, n=18), saxagliptin group (db/db, n=18), obacunone/saxagliptin combination group (db/db, n=18), isoobacunoic acid/saxagliptin combination group (db/db, n=18), obacunone glycoside/saxagliptin combination group (db/db, n=18). […]

[2] = test system: mouse pancreatic islet β-cell injury model (ICR mice modeled with streptozotocin); assay: Blood glucose in mouse pancreatic islet β-cell injury model (limonoid compound, sitagliptin or combination); details: STZ mice, single administration 0.02 g/kg per day by gavage, two weeks, 1 h after the last administration, mean ± SD
Excerpt: In this example, a mouse pancreatic islet β-cell injury model was established by modeling ICR mice with streptozotocin (STZ) (Li Nan et al., Protective effect of pine pollen on kidney damage in diabetic nephropathy mice, Science and Technology Review, 2014, 32 (4/5): 95-99), and used to complete the evaluation of hypoglycemic effect in animals (this model could simulate pancreatic islet β-cell damage state of type I and type II diabetics). The limonoid compound was selected from the group consisting of limonin, isolimonic acid, limonin glycoside, and isolimonic acid glycoside, and sitagliptin single administration group, limonin single administration group, isolimonic acid single administration group, limonin glycoside singe administration group, isolimonic acid glycoside singe administration group, and respective combination thereof with sitagliptin administration groups were set. Conditions of experimental feeding: ICR mice (20±2 g), aged 6 weeks, purchased from Zhejiang Academy of Medical Sciences, and subjected to experimental feeding after 7 days of preliminary feeding. […] The data were expressed as mean and standard deviation. The data before and after were analyzed by t-test, and P<0.05 was considered statistically significant.

[3] = test system: db/db mice; assay: Blood glucose in mouse type II diabetes model (limonoid compound, linagliptin or combination); details: single administration 0.2 g/kg per day by gavage, two weeks, 1 h after the last administration, mean ± SD
Excerpt: (§3) In the present embodiment, the limonoid compound was selected from nomilin, deacetylnomilin, nomilin acid, deacetylnomilin acid glycoside, and linagliptin single administration group, nomilin single administration group, deacetylnomilin single administration group, nomilin acid single administered group, deacetylnomilin acid glycoside single administration group, and respective combination thereof with linagliptin administration groups were set.
as §2
(§4) Experimental grouping: male db/db mice (20±2 g) were selected, 18 male mice in each group were tested, and drinking bottles were sterilized weekly. […]

[4] = test system: db/db mice; assay: Serum insulin (Elisa) in mouse type II diabetes model (limonoid compound, linagliptin or combination); details: single administration 0.2 g/kg per day by gavage, two weeks, mean ± SD
Excerpt: as §3, §2, §4

[5] = test system: db/db mice; assay: Serum leptin (Elisa) in mouse type II diabetes model (limonoid compound, saxagliptin or combination); details: single administration 0.04 g/kg per day by gavage, two weeks, mean ± SD
Excerpt: as §1
as §2, with “daily. […]” for “daily.”

[6] = test system: mouse pancreatic islet β-cell injury model (ICR mice modeled with streptozotocin); assay: Blood glucose in mouse pancreatic islet β-cell injury model (limonoid compound, vildagliptin or combination); details: STZ mice, single administration 0.1 g/kg per day by gavage, two weeks, 1 h after the last administration, mean ± SD
Procedure: as §2, with “It” for “Conditions for experimental feeding: as type II diabetes model mice, 6-week-old SPF-grade db/db mice were purchased from the Nanjing Model Biology Institute, and subjected to experimental feeding after 7 days of preliminary feeding. It”
SPSS 16.0 software was used for statistical analysis. The data were expressed as mean and standard deviation. The data before and after were analyzed by t-test, and P<0.05 was considered statistically significant.

CC1(C)O[C@@H](CC(=O)O)[C@]2(C)[C@H]3CC[C@@]4(C)[C@H](c5ccoc5)OC(=O)[C@H]5O[C@]54[C@]3(C)C(=O)C[C@@H]12 [Isoobacunoic acid, isoobacunoic acid]
Blood glucose value [1]: 14.6 ± 3.1 mmol/L

N[C@@H](CC(=O)N1CCn2c(nnc2C(F)(F)F)C1)Cc1cc(F)c(F)cc1F [Sitagliptin, sitagliptin]
Blood glucose value [2]: 21.7 ± 4.9 mmol/L

CC#CCn1c(N2CCC[C@@H](N)C2)nc2c1c(=O)n(Cc1nc(C)c3ccccc3n1)c(=O)n2C [Linagliptin, linagliptin]
Blood glucose value [3]: 11.9 ± 2.1 mmol/L | Insulin [4]: 8.00 ± 1.94 pg/mL

N#C[C@@H]1C[C@@H]2C[C@@H]2N1C(=O)[C@@H](N)C12CC3CC(CC(O)(C3)C1)C2 [Saxagliptin, saxagliptin]
Blood glucose value [1]: 13.9 ± 3.5 mmol/L | Leptin [5]: 32.52 ± 5.11 pg/mL

N#C[C@@H]1CCCN1C(=O)CNC12CC3CC(CC(O)(C3)C1)C2 [Vildagliptin, vildagliptin]
Blood glucose value [6]: 16.9 ± 2.6 mmol/L

CC1(C)OC(=O)C=C[C@]2(C)[C@H]3CC[C@@](C)([C@@H](O[C@@H]4O[C@H](CO)[C@@H](O)[C@H](O)[C@H]4O)c4ccoc4)[C@@]4(O[C@@H]4C(=O)O)[C@]3(C)C(=O)C[C@@H]12 [Obacunone glycoside, obacunone glycoside]
Blood glucose value [1]: 13.6 ± 2.9 mmol/L
